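Grown in 96-well plates, cells were treated for 48 hours with each compound at five concentrations. Insufficient inhibition: endpoint recorded as highest concentration tested. GI50 = concentration required for 50% inhibition of growth. Definition used: TGI = concentration required for complete inhibition of growth.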
How the values were obtained:
Assay in all cases: growth of human tumour cells (NCI), 48 h
KM12 colon = test system: KM12 colon
K-562 leukemia = test system: K-562 leukemia
HCC-2998 colon = test system: HCC-2998 colon
U251 CNS = test system: U251 CNS
HS 578T breast = test system: HS 578T breast
MOLT-4 leukemia = test system: MOLT-4 leukemia
A549 NSCLC = test system: A549 NSCLC
TK-10 renal = test system: TK-10 renal
SF-295 CNS = test system: SF-295 CNS
T-47D breast = test system: T-47D breast
EKVX NSCLC = test system: EKVX NSCLC
SK-MEL-2 melanoma = test system: SK-MEL-2 melanoma
MDA-MB-435 = test system: MDA-MB-435
HOP-62 NSCLC = test system: HOP-62 NSCLC
NCI-H522 lung = test system: NCI-H522 lung
SN12C renal = test system: SN12C renal
M14 melanoma = test system: M14 melanoma
SK-MEL-5 melanoma = test system: SK-MEL-5 melanoma
CAKI-1 renal = test system: CAKI-1 renal
COLO 205 colon = test system: COLO 205 colon
786-0 renal = test system: 786-0 renal
OVCAR-8 ovarian = test system: OVCAR-8 ovarian
SK-OV-3 ovarian = test system: SK-OV-3 ovarian
DU-145 prostate = test system: DU-145 prostate
RPMI-8226 leukemia = test system: RPMI-8226 leukemia
NCI-H23 lung = test system: NCI-H23 lung
MDA-MB-231 breast = test system: MDA-MB-231 breast
HCT-15 colon = test system: HCT-15 colon
UO-31 renal = test system: UO-31 renal
NCI-H226 lung = test system: NCI-H226 lung
ACHN renal = test system: ACHN renal
SK-MEL-28 melanoma = test system: SK-MEL-28 melanoma
NCI/ADR-RES ovarian = test system: NCI/ADR-RES ovarian
NCI-H460 lung = test system: NCI-H460 lung
MCF7 breast = test system: MCF7 breast
SNB-19 CNS = test system: SNB-19 CNS
MALME-3M melanoma = test system: MALME-3M melanoma
UACC-62 melanoma = test system: UACC-62 melanoma
SF-539 CNS = test system: SF-539 CNS
UACC-257 melanoma = test system: UACC-257 melanoma
MDA-N = test system: MDA-N
SW-620 colon = test system: SW-620 colon
BT-549 breast = test system: BT-549 breast
HT29 colon = test system: HT29 colon
OVCAR-4 ovarian = test system: OVCAR-4 ovarian
RXF 393 renal = test system: RXF 393 renal
IGROV1 ovarian = test system: IGROV1 ovarian
HCT-116 colon = test system: HCT-116 colon
HOP-92 NSCLC = test system: HOP-92 NSCLC
A498 renal = test system: A498 renal
LOX IMVI melanoma = test system: LOX IMVI melanoma
SF-268 CNS = test system: SF-268 CNS
HL-60(TB) leukemia = test system: HL-60(TB) leukemia
OVCAR-5 ovarian = test system: OVCAR-5 ovarian
PC-3 prostate = test system: PC-3 prostate

## COc1ccc(-c2cc(=O)c3cc(C)cnc3[nH]2)cc1
KM12 colon
  TGI: > 100 µM
K-562 leukemia
  TGI: 8.29 µM
HCC-2998 colon
  TGI: 85 µM
U251 CNS
  GI50: 4.2 µM
  TGI: > 100 µM
HS 578T breast
  TGI: > 100 µM
MOLT-4 leukemia
  TGI: 40.9 µM
A549 NSCLC
  TGI: > 100 µM
TK-10 renal
  TGI: > 100 µM
SF-295 CNS
  GI50: 5.29 µM
  TGI: > 100 µM
T-47D breast
  TGI: > 100 µM
EKVX NSCLC
  TGI: > 100 µM
SK-MEL-2 melanoma
  TGI: > 100 µM
MDA-MB-435
  TGI: 5.53 µM
HOP-62 NSCLC
  TGI: > 100 µM
NCI-H522 lung
  TGI: 30.7 µM
SN12C renal
  TGI: > 100 µM
M14 melanoma
  TGI: 45.1 µM
SK-MEL-5 melanoma
  GI50: 3.73 µM
  TGI: > 100 µM
CAKI-1 renal
  TGI: > 100 µM
COLO 205 colon
  TGI: 23 µM
786-0 renal
  GI50: 5.1 µM
  TGI: > 100 µM
OVCAR-8 ovarian
  TGI: > 100 µM
SK-OV-3 ovarian
  TGI: > 100 µM
DU-145 prostate
  TGI: > 100 µM
RPMI-8226 leukemia
  TGI: 45 µM
NCI-H23 lung
  TGI: > 100 µM
MDA-MB-231 breast
  TGI: > 100 µM
HCT-15 colon
  TGI: 19.8 µM
UO-31 renal
  TGI: > 100 µM
NCI-H226 lung
  TGI: 51.7 µM
ACHN renal
  TGI: > 100 µM
SK-MEL-28 melanoma
  TGI: > 100 µM
NCI/ADR-RES ovarian
  TGI: 23.5 µM
NCI-H460 lung
  GI50: 4.08 µM
  TGI: 36.5 µM
MCF7 breast
  TGI: > 100 µM
SNB-19 CNS
  TGI: > 100 µM
MALME-3M melanoma
  TGI: > 100 µM
UACC-62 melanoma
  TGI: > 100 µM
SF-539 CNS
  TGI: > 100 µM
UACC-257 melanoma
  TGI: > 100 µM
MDA-N
  GI50: 1.69 µM
  TGI: 4.98 µM
SW-620 colon
  TGI: > 100 µM
BT-549 breast
  TGI: 15 µM
HT29 colon
  TGI: 5.9 µM
OVCAR-4 ovarian
  TGI: > 100 µM
RXF 393 renal
  TGI: > 100 µM
IGROV1 ovarian
  TGI: > 100 µM
HCT-116 colon
  GI50: 4.15 µM
  TGI: > 100 µM
HOP-92 NSCLC
  TGI: > 100 µM
A498 renal
  TGI: 62.6 µM
LOX IMVI melanoma
  TGI: > 100 µM
SF-268 CNS
  TGI: > 100 µM
HL-60(TB) leukemia
  GI50: 2.27 µM
  TGI: 5.64 µM
OVCAR-5 ovarian
  TGI: > 100 µM
PC-3 prostate
  GI50: 5.32 µM
  TGI: > 100 µM

Source: PubChem BioAssay (NCI)
